This note sets out measurements from ChEMBL document CHEMBL4814023, “The dual inhibition against the activity and expression of tyrosine phosphatase PRL-3 from a rhodanine derivative” (Bioorg Med Chem Lett, 2021).

The source made the active and inactive calls. The rule behind the calls is not given here.

Experiment [1] concerns SW480. Description: Antiproliferative activity against human SW480 cells assessed as reduction in cell viability at 1 to 100 uM incubated for 24 to 72 hrs by MTT assay. The format is functional, cell-based. The note with it: dose 1-100 µM, time 24-72 hrs.
Experiment [2] concerns HCT-116. Description: Antiproliferative activity against human HCT116 cells assessed as reduction in cell viability at 1 to 100 uM incubated for 24 to 72 hrs by MTT assay. The format is functional, cell-based. The note with it: dose 1-100 µM, time 24-72 hrs. For orientation: Formazan colour is commonly taken as a measure of viable cells.
The test system of experiment [3] is SW480. Nature of the experiment: cells. The note with it: Homo sapiens.
The test system of experiment [4] is HCT-116. Nature of the experiment: cells. The note with it: Homo sapiens.
Experiment [5] has as its system SW480. Description: Antiproliferative activity against human SW480 cells assessed as reduction in cell viability at 1 to 100 uM by MTT assay. The note with it: dose 1-100 µM, time 24-72 hrs, TDE = time-dependent effect. The format is functional, cell-based.
The subject of experiment [6] is SW480. Nature of the experiment: Induction of apoptosis in human SW480 cells assessed as decrease in number of cells at 5 to 50 uM after 24 hrs by AO/EB staining based fluorescence inverted microscopic method. The experiment is classed as functional, cell-based. The note with it: dose 5-50 µM.
Experiment [7] relates to SW480. Description: Induction of apoptosis in human SW480 cells assessed as change in cell shape at 5 to 50 uM after 24 hrs by AO/EB staining based fluorescence inverted microscopic method. The format is functional. The note with it: dose 5-50 µM.
The test system of experiment [8] is SW480. Nature of the experiment: Induction of apoptosis in human SW480 cells assessed as increase in number of cells with red dye at 5 to 50 uM after 24 hrs by AO/EB staining based fluorescence inverted microscopic method. The format is functional, cell-based. The note with it: dose 5-50 µM.
Experiment [9] deals with SW480. Nature of the experiment: Induction of apoptosis in human SW480 cells assessed as early apoptotic cells at 5 uM incubated for 24 hrs by Annexin V-FITC/propidium iodide staining based flow cytometry analysis (reference value: 0.52%). The format is functional. (In general: In flow cytometry, cells or beads pass a laser one at a time.)
The subject of experiment [10] is SW480. Nature of the experiment: Induction of apoptosis in human SW480 cells assessed as late apoptotic cells at 5 uM incubated for 24 hrs by Annexin V-FITC/propidium iodide staining based flow cytometry analysis (reference value: 2.58%). The experiment is classed as functional.
The subject of experiment [11] is SW480. Nature of the experiment: Induction of apoptosis in human SW480 cells assessed as early apoptotic cells at 10 uM incubated for 24 hrs by Annexin V-FITC/propidium iodide staining based flow cytometry analysis (reference value: 0.52%). The format is functional.
The test system of experiment [12] is SW480. Description: Induction of apoptosis in human SW480 cells assessed as late apoptotic cells at 10 uM incubated for 24 hrs by Annexin V-FITC/propidium iodide staining based flow cytometry analysis (reference value: 2.58%). The format is functional.
The test system of experiment [13] is SW480. Description: Induction of apoptosis in human SW480 cells assessed as early apoptotic cells at 25 uM incubated for 24 hrs by Annexin V-FITC/propidium iodide staining based flow cytometry analysis (reference value: 0.52%). The format is functional.
The subject of experiment [14] is SW480. Nature of the experiment: Induction of apoptosis in human SW480 cells assessed as late apoptotic cells at 25 uM incubated for 24 hrs by Annexin V-FITC/propidium iodide staining based flow cytometry analysis (reference value: 2.58%). The experiment is classed as functional.
Experiment [15] relates to SW480. Description: Induction of apoptosis in human SW480 cells assessed as early apoptotic cells at 50 uM incubated for 24 hrs by Annexin V-FITC/propidium iodide staining based flow cytometry analysis (reference value: 0.52%). The experiment is classed as functional.
The subject of experiment [16] is SW480. Description: Induction of apoptosis in human SW480 cells assessed as late apoptotic cells at 50 uM incubated for 24 hrs by Annexin V-FITC/propidium iodide staining based flow cytometry analysis (reference value: 2.58%). The format is functional.
Experiment [17] relates to SW480. Description: Down regulation of PRL-3 expression in human SW480 cells by Western blot analysis. The format is functional, cell-based. The note with it: dose 5-50 µM.
Experiment [18] concerns SW480. Nature of the experiment: Effect on TCPTP expression in human SW480 cells at 5 to 50 uM by Western blot analysis. The format is functional, cell-based. The note with it: dose 5-50 µM.
Experiment [19] relates to SW480. Description: Effect on PTP1B expression in human SW480 cells at 5 to 50 uM by Western blot analysis. The format is functional, cell-based. The note with it: dose 5-50 µM.
Experiment [20] has as its system SW480. Description: Effect on SHP-1 expression in human SW480 cells at 5 to 50 uM by Western blot analysis. The note with it: dose 5-50 µM. The format is functional, cell-based.
Experiment [21] concerns SW480. Nature of the experiment: Effect on SHP-2 expression in human SW480 cells at 5 to 50 uM by Western blot analysis. The experiment is classed as functional, cell-based. The note with it: dose 5-50 µM. For orientation: A western blot detects proteins with antibodies after separation by electrophoresis.
Experiment [22] has as its system SW480. Description: Antiproliferative activity against human SW480 cells assessed as reduction in cell viability incubated for 24 to 72 hrs by MTT assay. The note with it: dose 1-100 µM, time 24-72 hrs.
For experiment [23], the target named is T1, Protein tyrosine phosphatase type IVA 3 (Homo sapiens, UniProt O75365). Nature of the experiment: Inhibition of human brain PRL-3 (1 to 168 residues) expressed in Escherichia coli BL21(DE3) cells using DiFMUP as substrate incubated for 1 hr by fluorimetric assay.
T1 sequence (O75365 whole entry, the tested form may be a part): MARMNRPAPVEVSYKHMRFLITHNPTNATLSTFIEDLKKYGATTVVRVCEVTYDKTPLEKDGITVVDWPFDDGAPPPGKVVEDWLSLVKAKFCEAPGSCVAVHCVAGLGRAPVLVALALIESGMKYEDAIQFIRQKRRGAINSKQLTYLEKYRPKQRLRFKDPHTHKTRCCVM
Experiment [24] has as its target T1, Protein tyrosine phosphatase type IVA 3. Description: Inhibition of PRL-3 (unknown origin) using DiFMUP as substrate incubated for 1 hr.

The IC50 is the concentration needed to halve the response being measured. A higher IC50 goes with a need for much substance. With `O=C1NC(=S)S/C1=C\c1c(F)cc(F)cc1F`, the result with SW480 [1] and in the experiment on HCT-116 [2] was inactive. The IC50 in the experiment on SW480 [3] is 86.1 µM; in the experiment with HCT-116 [4], 16.9 µM.
For the compound `Cn1ccnc1/C=C1\SC(=S)NC1=O`, the result with SW480 [1] and in the experiment with HCT-116 [2] was inactive. Also, the IC50 in the experiment on SW480 [3] was 78.7 µM; with HCT-116 [4], more than 100 µM.
Consider `O=C1NC(=S)S/C1=C\c1cc(Cl)ccc1C(F)(F)F`, for which the Activity entry was “Tde” in the experiment on SW480 [5]; 0.92% in the experiment on SW480 [9]; 4.13% in the experiment with SW480 [10]; 1.47% with SW480 [11]; 5.91% in the experiment on SW480 [12]; 2.9% in the experiment on SW480 [13]. Also, the Activity in the experiment with SW480 [14] is 6.23%; in the experiment on SW480 [15], 4.77%; with SW480 [16] it was 11.72%; in the experiment on SW480 [17], “Dose-Dependent Effect”; with SW480 [22], “Dose-Dependent Effect”. Moreover, the result with SW480 [6], in the experiment with SW480 [7] and with SW480 [8] was Active. Besides, the result with SW480 [18], in the experiment with SW480 [19], in the experiment on SW480 [20] and in the experiment on SW480 [21] was inactive. For the same compound, the IC50 came to 6.64 µM with SW480 [3] and 74.8 µM in the experiment on HCT-116 [4].
Turning to `COc1cc(O)c2c(=O)cc(-c3ccc(OC)c(-c4c(O)cc(O)c5c(=O)cc(-c6ccc(O)cc6)oc45)c3)oc2c1` [GINKGETIN], it took 25.8 µM to reach half-maximal inhibition in experiment [23] (IC50).
On to `N#Cc1cc(/C=C2\SC(=S)NC2=O)ccc1F`, for which the result in the experiment on SW480 [1] and in the experiment with HCT-116 [2] was inactive. Also, the results for the IC50 with SW480 [3] and in the experiment with HCT-116 [4] were 31.4 µM and more than 100 µM, respectively.
Consider `O=C1NC(=S)S/C1=C\c1ccc(O)c(C(=O)O)c1`, for which the outcome with SW480 [1] and in the experiment with HCT-116 [2] was inactive. The IC50 with SW480 [3] is more than 100 µM; in the experiment on HCT-116 [4], 100 µM.
Turning to `O=C1NC(=S)S/C1=C\c1cc(Cl)ccc1Cl`, the IC50 in [24] was 26 µM; with SW480 [3], 66.7 µM; in the experiment on HCT-116 [4], 16.9 µM. In addition, the result with SW480 [1] and with HCT-116 [2] was inactive.
Turning to `COc1ccc(-c2cc(=O)c3c(O)cc(O)c(-c4cc(-c5cc(=O)c6c(O)cc(OC)cc6o5)ccc4OC)c3o2)cc1` [SCIADOPITISIN], the IC50 in experiment [23] was 46.2 µM. This counts as double-digit micromolar.
